Assay [1] in a line: (§1) Inhibition of class 1 HDAC in mouse A9 cells after 30 mins by luminescent assay. It is filed as cell-based.
For assay [2], the system named is A9. Described as §1. It is filed as cell-based.
Assay [3] can be described thus: (§2) Inhibition of class 2 HDAC in mouse A9 cells after 30 mins by luminescent assay. The class given is cell-based.
Assay [4] relates to A9. The description is as §2. The class given is cell-based.
Assay [5] concerns the target T1, Protein deacetylase HDAC6 (Homo sapiens) (UniProt Q9UBN7).
T1 sequence (whole entry): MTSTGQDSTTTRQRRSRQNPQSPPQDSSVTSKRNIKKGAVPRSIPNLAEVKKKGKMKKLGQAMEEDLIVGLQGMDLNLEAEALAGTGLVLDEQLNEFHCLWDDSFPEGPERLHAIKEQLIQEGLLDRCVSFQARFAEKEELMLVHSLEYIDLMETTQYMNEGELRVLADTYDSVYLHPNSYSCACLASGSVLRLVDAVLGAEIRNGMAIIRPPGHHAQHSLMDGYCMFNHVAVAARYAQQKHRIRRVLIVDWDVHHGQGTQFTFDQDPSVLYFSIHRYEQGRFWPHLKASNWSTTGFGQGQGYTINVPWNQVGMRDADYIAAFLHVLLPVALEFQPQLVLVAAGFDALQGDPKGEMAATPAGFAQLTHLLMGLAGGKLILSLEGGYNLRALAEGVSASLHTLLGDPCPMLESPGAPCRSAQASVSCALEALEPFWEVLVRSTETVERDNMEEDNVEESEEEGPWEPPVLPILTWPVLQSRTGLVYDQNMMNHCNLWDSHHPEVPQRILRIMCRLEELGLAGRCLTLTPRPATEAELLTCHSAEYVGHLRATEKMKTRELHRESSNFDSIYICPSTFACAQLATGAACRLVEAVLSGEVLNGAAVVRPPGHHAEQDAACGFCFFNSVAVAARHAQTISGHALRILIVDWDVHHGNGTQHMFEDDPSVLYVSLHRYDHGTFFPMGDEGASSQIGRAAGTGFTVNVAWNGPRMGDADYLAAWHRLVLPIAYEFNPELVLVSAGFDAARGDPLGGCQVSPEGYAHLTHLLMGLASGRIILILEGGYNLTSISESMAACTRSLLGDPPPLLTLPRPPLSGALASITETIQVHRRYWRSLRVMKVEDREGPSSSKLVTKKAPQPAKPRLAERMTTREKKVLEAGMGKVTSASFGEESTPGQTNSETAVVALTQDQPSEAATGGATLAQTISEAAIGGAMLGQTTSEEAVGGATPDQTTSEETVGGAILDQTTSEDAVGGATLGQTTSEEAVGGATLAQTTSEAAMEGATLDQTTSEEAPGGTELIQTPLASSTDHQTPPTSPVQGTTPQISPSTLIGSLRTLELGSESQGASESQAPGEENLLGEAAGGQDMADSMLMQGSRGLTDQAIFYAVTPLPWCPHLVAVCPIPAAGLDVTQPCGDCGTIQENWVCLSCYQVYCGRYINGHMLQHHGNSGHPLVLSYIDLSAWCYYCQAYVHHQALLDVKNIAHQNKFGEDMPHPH
In words: Inhibition of human HDAC6 at 330 uM by HDAC-Glo1/2 luminescent assay relative to control.

Assay [6] concerns the target Histone deacetylase 9 (Homo sapiens) (UniProt Q9UKV0). In words: Inhibition of human HDAC9 at 330 uM by HDAC-Glo1/2 luminescent assay.

Calls of active or inactive are those of the source. The calls are words filed in the database; no cut-off is given here.

Sequence of Histone deacetylase 9 (Homo sapiens) (Q9UKV0 whole entry): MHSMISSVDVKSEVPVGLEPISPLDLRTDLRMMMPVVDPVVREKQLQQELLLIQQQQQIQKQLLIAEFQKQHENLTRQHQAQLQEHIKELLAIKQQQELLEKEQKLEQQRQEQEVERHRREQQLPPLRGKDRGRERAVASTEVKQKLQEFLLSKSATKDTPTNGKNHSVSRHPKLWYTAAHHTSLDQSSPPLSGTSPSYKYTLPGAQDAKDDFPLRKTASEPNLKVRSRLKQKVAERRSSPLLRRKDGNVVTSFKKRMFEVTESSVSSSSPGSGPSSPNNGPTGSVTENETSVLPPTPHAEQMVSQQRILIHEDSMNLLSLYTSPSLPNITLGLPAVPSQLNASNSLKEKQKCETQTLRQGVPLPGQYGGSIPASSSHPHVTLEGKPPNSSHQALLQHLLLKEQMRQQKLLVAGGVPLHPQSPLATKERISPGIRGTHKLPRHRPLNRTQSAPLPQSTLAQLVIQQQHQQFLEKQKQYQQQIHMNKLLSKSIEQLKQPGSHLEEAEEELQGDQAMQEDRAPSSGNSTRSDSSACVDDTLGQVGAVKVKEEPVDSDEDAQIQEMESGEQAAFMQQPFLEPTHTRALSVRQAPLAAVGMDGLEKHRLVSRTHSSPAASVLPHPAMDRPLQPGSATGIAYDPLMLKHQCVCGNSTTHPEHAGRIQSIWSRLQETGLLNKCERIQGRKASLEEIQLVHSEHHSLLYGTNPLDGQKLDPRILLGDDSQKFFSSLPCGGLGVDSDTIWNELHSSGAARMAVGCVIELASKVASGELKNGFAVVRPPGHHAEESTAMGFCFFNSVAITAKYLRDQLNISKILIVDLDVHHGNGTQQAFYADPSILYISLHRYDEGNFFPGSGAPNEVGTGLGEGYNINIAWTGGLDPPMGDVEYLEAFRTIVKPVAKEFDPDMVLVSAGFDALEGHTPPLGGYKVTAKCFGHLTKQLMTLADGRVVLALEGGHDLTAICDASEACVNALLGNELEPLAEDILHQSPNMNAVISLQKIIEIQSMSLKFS

Consider `CC(C)=CCOc1ccc(C/C(=N\O)C(=O)NO)cc1`, for which the IC50 in assay [1] and in assay [3] was 7 µM in each case. Further, the inhibition entry in the assay with A9 [2] and in the assay with A9 [4] was “Dose-dependent effect” each time.

In assay [5], `COC(=O)C(Cc1ccc(OCC=C(C)C)cc1)N(O)C(=O)/C(C)=N/O` (stereo unspecified) gave an inhibition of 69%. Moreover, the inhibition entry in assay [6] was “inactive”.

For the origin of these results see ChEMBL document CHEMBL4130611, “Serpulanines A to C, N-Oxidized Tyrosine Derivatives Isolated from the Sri Lankan Fungus Serpula sp.: Structure Elucidation, Synthesis, and Histone Deacetylase Inhibition” (J Nat Prod, 2018).
